Experimental data as given in ChEMBL document CHEMBL3425430, “α-Substituted 2-(3-fluoro-4-methylsulfonamidophenyl)acetamides as potent TRPV1 antagonists” (Bioorg Med Chem Lett, 2015).

Each compound was assayed against T1, Transient receptor potential cation channel subfamily V member 1 (Homo sapiens, UniProt Q8NER1) (assay: Antagonist activity at human TRPV1 expressed in CHO cells assessed as inhibition of capsaicin-induced activation by FLIPR assay). Conditions: cho; call rule not given here.
Type: cell-based

T1 sequence (Q8NER1 whole entry): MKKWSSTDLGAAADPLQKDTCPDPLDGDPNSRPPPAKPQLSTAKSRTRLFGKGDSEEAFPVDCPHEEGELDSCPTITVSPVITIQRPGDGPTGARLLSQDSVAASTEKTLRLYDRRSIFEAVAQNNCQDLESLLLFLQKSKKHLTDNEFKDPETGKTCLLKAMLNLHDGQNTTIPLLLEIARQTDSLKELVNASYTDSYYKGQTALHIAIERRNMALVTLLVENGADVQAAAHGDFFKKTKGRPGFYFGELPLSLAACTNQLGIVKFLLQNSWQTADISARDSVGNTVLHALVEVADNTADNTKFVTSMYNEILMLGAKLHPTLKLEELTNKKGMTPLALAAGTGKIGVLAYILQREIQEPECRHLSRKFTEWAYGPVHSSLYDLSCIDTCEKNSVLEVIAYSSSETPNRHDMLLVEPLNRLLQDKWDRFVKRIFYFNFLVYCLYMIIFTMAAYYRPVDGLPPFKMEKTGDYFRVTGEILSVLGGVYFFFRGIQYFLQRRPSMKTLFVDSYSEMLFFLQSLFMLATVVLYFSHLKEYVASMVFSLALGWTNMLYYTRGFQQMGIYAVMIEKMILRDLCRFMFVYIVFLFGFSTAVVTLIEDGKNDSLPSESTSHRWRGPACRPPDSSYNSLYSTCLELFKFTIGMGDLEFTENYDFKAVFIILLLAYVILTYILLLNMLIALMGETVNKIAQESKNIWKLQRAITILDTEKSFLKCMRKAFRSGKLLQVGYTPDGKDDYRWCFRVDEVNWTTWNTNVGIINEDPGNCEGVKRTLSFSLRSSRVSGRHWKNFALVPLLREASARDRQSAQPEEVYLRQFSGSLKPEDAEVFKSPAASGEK

Ki	Compound
Active	CS(=O)(=O)Nc1ccc(C(C(=O)NCc2ccc(C(F)(F)F)nc2SC2CCCCC2)C2CCCCC2)cc1F (configuration not stated)
Active	CCC(C)(C(=O)NCc1ccc(C(F)(F)F)nc1SC1CCCCC1)c1ccc(NS(C)(=O)=O)c(F)c1 (configuration not stated)
Active	CC1CCN(c2nc(C(F)(F)F)ccc2CNC(=O)C2(c3ccc(NS(C)(=O)=O)c(F)c3)CCCC2)CC1
Active	CS(=O)(=O)Nc1ccc(C2(C(=O)NCc3ccc(C(F)(F)F)nc3SC3CCCCC3)CCCC2)cc1F

The next lines start with the compound.

Compound	Ki
Cc1ccccc1C(C(=O)NCc1ccc(C(F)(F)F)nc1SC1CCCCC1)c1ccc(NS(C)(=O)=O)c(F)c1 (configuration not stated)	Active
CS(=O)(=O)Nc1ccc(C(Cc2ccccc2)C(=O)NCc2ccc(C(F)(F)F)nc2SC2CCCCC2)cc1F (configuration not stated)	Active
CS(=O)(=O)Nc1ccc(C(Cc2ccc(F)cc2)C(=O)NCc2ccc(C(F)(F)F)nc2SC2CCCCC2)cc1F (configuration not stated)	Active
Cc1ccc(CC(C(=O)NCc2ccc(C(F)(F)F)nc2N2CCC(C)CC2)c2ccc(NS(C)(=O)=O)c(F)c2)cc1 (configuration not stated)	Active

Same assay, conditions: read-out: Ki

Ki	Compound
56.4 nM	Cc1cccc(C(C(=O)NCc2ccc(C(F)(F)F)nc2SC2CCCCC2)c2ccc(NS(C)(=O)=O)c(F)c2)c1 (configuration not stated)
7.5 nM	Cc1ccc(C(C(=O)NCc2ccc(C(F)(F)F)nc2SC2CCCCC2)c2ccc(NS(C)(=O)=O)c(F)c2)cc1 (configuration not stated)

The next lines start with the compound.

Compound	Ki
CS(=O)(=O)Nc1ccc(C(C(=O)NCc2ccc(C(F)(F)F)nc2SC2CCCCC2)c2cccc(F)c2)cc1F (configuration not stated)	48.7 nM
CS(=O)(=O)Nc1ccc(C(C(=O)NCc2ccc(C(F)(F)F)nc2SC2CCCCC2)c2ccc(F)cc2)cc1F (configuration not stated)	37.6 nM
CC1CCN(c2nc(C(F)(F)F)ccc2CNC(=O)C(Cc2ccccc2)c2ccc(NS(C)(=O)=O)c(F)c2)CC1 (configuration not stated)	65.9 nM
CC1CCN(c2nc(C(F)(F)F)ccc2CNC(=O)C(Cc2ccc(F)cc2)c2ccc(NS(C)(=O)=O)c(F)c2)CC1 (configuration not stated)	49.3 nM
Cc1ccc(CC(C(=O)NCc2ccc(C(F)(F)F)nc2SC2CCCCC2)c2ccc(NS(C)(=O)=O)c(F)c2)cc1 (configuration not stated)	40.3 nM

The compounds below were run against T1, Transient receptor potential cation channel subfamily V member 1 (assay: Antagonist activity at human TRPV1 expressed in CHO cells assessed as inhibition of 45 degC heat-induced activation by FLIPR assay). Conditions: not given.
Type: cell-based

Compound	IC50
Cc1cccc(C(C(=O)NCc2ccc(C(F)(F)F)nc2N2CCC(C)CC2)c2ccc(NS(C)(=O)=O)c(F)c2)c1 (configuration not stated)	36.2 nM

Each compound was assayed against T1, Transient receptor potential cation channel subfamily V member 1 (assay: Antagonist activity at human TRPV1 expressed in CHO cells assessed as inhibition of N-arachidonoyl dopamine-induced activation by FLIPR assay). Conditions: not given.
Type: cell-based

Compound	Ki
Cc1cccc(C(C(=O)NCc2ccc(C(F)(F)F)nc2N2CCC(C)CC2)c2ccc(NS(C)(=O)=O)c(F)c2)c1 (configuration not stated)	0.25 nM
